From PubChem BioAssay AID248 (DTP/NCI, 2004)
Toxic doses and inconclusive results are not listed.

System: L1210 leukemia ip in BDF1 mice, survival T/C
Assay: NCI In Vivo Anticancer Drug Screen. Data for tumor model L1210 Leukemia (intraperitoneal) in B6D2F1 (BDF1) mice
Settings: endpoint: mean survival time, higher = longer survival
Method in brief: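 Value reflects the ratio of survival in compound-treated mice to survival in vehicle-treated controls, with both groups carrying the same transplanted tumor.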

[1] = dose: 100.0 mg/kg/injection, schedule: Q01DX001 (ip), vehicle: carboxymethylcellulose (CMC)
[2] = dose: 100.0 mg/kg/injection, schedule: Q04DX003 (ip), vehicle: Klucel (hydroxypropylcellulose) (HPC)
[3] = dose: 200.0 mg/kg/injection, schedule: Q01DX001 (ip), vehicle: carboxymethylcellulose (CMC)
[4] = dose: 200.0 mg/kg/injection, schedule: Q04DX003 (ip), vehicle: Klucel (hydroxypropylcellulose) (HPC)
[5] = dose: 400.0 mg/kg/injection, schedule: Q01DX001 (ip), vehicle: carboxymethylcellulose (CMC)
[6] = dose: 400.0 mg/kg/injection, schedule: Q04DX003 (ip), vehicle: Klucel (hydroxypropylcellulose) (HPC)
[7] = dose: 100.0 mg/kg/injection, schedule: Q01DX009 (ip), vehicle: Klucel (hydroxypropylcellulose) (HPC)
[8] = dose: 200.0 mg/kg/injection, schedule: Q01DX009 (ip), vehicle: Klucel (hydroxypropylcellulose) (HPC)
[9] = dose: 400.0 mg/kg/injection, schedule: Q01DX009 (ip), vehicle: Klucel (hydroxypropylcellulose) (HPC)
[10] = dose: 25.0 mg/kg/injection, schedule: Q04DX002 (ip), vehicle: Klucel (hydroxypropylcellulose) (HPC)
[11] = dose: 50.0 mg/kg/injection, schedule: Q04DX002 (ip), vehicle: Klucel (hydroxypropylcellulose) (HPC)
[12] = dose: 100.0 mg/kg/injection, schedule: Q04DX002 (ip), vehicle: Klucel (hydroxypropylcellulose) (HPC)
[13] = dose: 100.0 mg/kg/injection, schedule: Q01DX001 (ip), vehicle: saline
[14] = dose: 200.0 mg/kg/injection, schedule: Q01DX001 (ip), vehicle: saline
[15] = dose: 100.0 mg/kg/injection, schedule: Q04DX003 (ip), vehicle: saline with Tween-80
[16] = dose: 200.0 mg/kg/injection, schedule: Q04DX003 (ip), vehicle: saline with Tween-80
[17] = dose: 100.0 mg/kg/injection, schedule: Q01DX009 (ip), vehicle: saline
[18] = dose: 100.0 mg/kg/injection, schedule: Q04DX003 (ip), vehicle: saline
[19] = dose: 200.0 mg/kg/injection, schedule: Q01DX009 (ip), vehicle: saline
[20] = dose: 200.0 mg/kg/injection, schedule: Q04DX003 (ip), vehicle: saline
[21] = dose: 100.0 mg/kg/injection, schedule: Q01DX009 (ip), vehicle: saline with Tween-80
[22] = dose: 200.0 mg/kg/injection, schedule: Q01DX009 (ip), vehicle: saline with Tween-80
[23] = dose: 400.0 mg/kg/injection, schedule: Q01DX009 (ip), vehicle: saline with Tween-80
[24] = dose: 400.0 mg/kg/injection, schedule: Q01DX009 (ip), vehicle: saline
[25] = dose: 75.0 mg/kg/injection, schedule: Q01DX001 (ip), vehicle: saline
[26] = dose: 150.0 mg/kg/injection, schedule: Q01DX001 (ip), vehicle: saline

C/C(C/C(C)=N/O)=N/O.C/C(C/C(C)=N/O)=N\O.[Cl][Rh][Cl]
T/C (dose: 25.0 mg/kg/injection, schedule: Q01DX009 (ip), vehicle: water): 100 % of control
T/C (dose: 50.0 mg/kg/injection, schedule: Q01DX009 (ip), vehicle: water): 97 % of control
T/C (dose: 100.0 mg/kg/injection, schedule: Q01DX009 (ip), vehicle: water): 97 % of control
T/C (dose: 200.0 mg/kg/injection, schedule: Q01DX009 (ip), vehicle: water): 100 % of control
T/C (dose: 400.0 mg/kg/injection, schedule: Q01DX009 (ip), vehicle: water): 94 % of control

O=C(O)CSCc1cccc2ccccc12
T/C [1]: 91 % of control
T/C [2]: 98 % of control
T/C [3]: 93 % of control
T/C [4]: 94 % of control
T/C [5]: 91 % of control
T/C [6]: 105 % of control

N#CCc1[nH]nc(N)c1C#N
T/C [7]: 95 % of control
T/C [2]: 89 % of control
T/C [8]: 102 % of control
T/C [4]: 93 % of control
T/C [9]: 96 % of control
T/C [6]: 91 % of control

CCCCCCCCCCCCCCCCCCOc1cccc(C(F)(F)F)c1
T/C (dose: 100.0 mg/kg/injection, schedule: Q01DX001 (ip), vehicle: saline with Tween-80): 89 % of control
T/C (dose: 200.0 mg/kg/injection, schedule: Q01DX001 (ip), vehicle: saline with Tween-80): 91 % of control

C=CCOC(=O)CCOCC
T/C (dose: 55.0 mg/kg/injection, schedule: Q01DX Z (ip), vehicle: methylcellulose (MC)): 90 % of control
T/C (dose: 83.0 mg/kg/injection, schedule: Q01DX Z (ip), vehicle: methylcellulose (MC)): 94 % of control
T/C (dose: 125.0 mg/kg/injection, schedule: Q01DX Z (ip), vehicle: methylcellulose (MC)): 90 % of control

COC1OC(COC(c2ccccc2)(c2ccccc2)c2ccccc2)C(OC(=S)SCc2ccccc2)C(OC)C1OC (stereo unspecified)
T/C [10]: 108 % of control
T/C [11]: 104 % of control
T/C [12]: 104 % of control

c1ccc2c(c1)ccn1cnnc21
T/C (dose: 50.0 mg/kg/injection, schedule: Q01DX001 (ip), vehicle: saline): 97 % of control
T/C [13]: 101 % of control
T/C [14]: 109 % of control

O=C1c2ccccc2C(=O)N1C1CCC(CO)C1 (stereo unspecified)
T/C [1]: 106 % of control
T/C [3]: 102 % of control
T/C [5]: 91 % of control

COc1ccc(OC)c(NC(=O)Nc2cc(OC)c(Cl)cc2OC)c1
T/C [7]: 105 % of control
T/C [8]: 94 % of control
T/C [9]: 87 % of control

O=C(Nc1ccccc1-c1ccc([N+](=O)[O-])cc1)c1cc(Cl)cc(Cl)c1
T/C [15]: 88 % of control
T/C [16]: 88 % of control

CCCn1ccc(N)nc1=O
T/C (dose: 75.0 mg/kg/injection, schedule: Q01DX001 (ip), vehicle: Klucel (hydroxypropylcellulose) (HPC)): 116 % of control
T/C (dose: 150.0 mg/kg/injection, schedule: Q01DX001 (ip), vehicle: Klucel (hydroxypropylcellulose) (HPC)): 119 % of control
T/C (dose: 300.0 mg/kg/injection, schedule: Q01DX001 (ip), vehicle: Klucel (hydroxypropylcellulose) (HPC)): 111 % of control

O=C(COc1ccc(Cl)cc1Cl)Nc1ccc2ccccc2c1S(=O)(=O)O
T/C [10]: 112 % of control
T/C [11]: 98 % of control
T/C [12]: 94 % of control

CN1CCN(c2c3c(nc4ccccc24)CCCC3)CC1
T/C [13]: 96 % of control

CC(C)(Cc1ccccc1)NC(=O)N(CCCl)N=O
T/C (dose: 31.0 mg/kg/injection, schedule: Q01DX001 (ip), vehicle: other): 124 % of control
T/C (dose: 62.0 mg/kg/injection, schedule: Q01DX001 (ip), vehicle: other): 151 % of control
T/C (dose: 250.0 mg/kg/injection, schedule: Q01DX001 (ip), vehicle: other): 194 % of control
T/C (dose: 375.0 mg/kg/injection, schedule: Q01DX001 (ip), vehicle: other): 244 % of control
T/C (dose: 500.0 mg/kg/injection, schedule: Q01DX001 (ip), vehicle: other): 273 % of control
T/C (dose: 750.0 mg/kg/injection, schedule: Q01DX001 (ip), vehicle: other): 263 % of control
T/C (dose: 1000.0 mg/kg/injection, schedule: Q01DX001 (ip), vehicle: other): 111 % of control

CC(CCc1cccc2ccccc12)C(=O)O (stereo unspecified)
T/C [2]: 103 % of control
T/C [4]: 100 % of control
T/C [6]: 105 % of control

O=c1ssc(Nc2ccccc2)c1Cl
T/C [12]: 93 % of control
T/C (dose: 200.0 mg/kg/injection, schedule: Q04DX002 (ip), vehicle: Klucel (hydroxypropylcellulose) (HPC)): 100 % of control
T/C (dose: 400.0 mg/kg/injection, schedule: Q04DX002 (ip), vehicle: Klucel (hydroxypropylcellulose) (HPC)): 104 % of control

O=C(O)C(O)C(=O)O
T/C (dose: 50.0 mg/kg/injection, schedule: Q01DX009 (ip), vehicle: saline): 95 % of control
T/C [17]: 89 % of control
T/C [18]: 103 % of control
T/C [19]: 92 % of control
T/C [20]: 100 % of control

CC(=O)Nc1ccc(NC(=O)Nc2cccc(F)c2)cc1
T/C [21]: 92 % of control
T/C [22]: 89 % of control
T/C [23]: 92 % of control

CCSCC1OC(n2cnc3c(N)ncnc32)CC1O (stereo unspecified)
T/C [13]: 98 % of control
T/C [14]: 104 % of control
T/C (dose: 400.0 mg/kg/injection, schedule: Q01DX001 (ip), vehicle: saline): 92 % of control

CC(=O)CCCc1ccccc1
T/C [17]: 92 % of control
T/C [18]: 100 % of control
T/C [19]: 98 % of control
T/C [20]: 100 % of control
T/C [24]: 104 % of control

CCC(CC)C[N+](C)(C)C
T/C [25]: 95 % of control
T/C [26]: 104 % of control

CCCOc1ccc(/C=N\N=C\c2ccc(OCCC)cc2)cc1
T/C [21]: 94 % of control
T/C [22]: 94 % of control
T/C [23]: 91 % of control

CCOP(N)(=O)SC (stereo unspecified)
T/C (dose: 5.0 mg/kg/injection, schedule: Q01DX001 (ip), vehicle: saline): 101 % of control

CNC(=O)OCCOC(=O)NC
T/C (dose: 100.0 mg/kg/injection, schedule: Q01DX001 (ip), vehicle: other): 98 % of control
T/C (dose: 100.0 mg/kg/injection, schedule: Q01DX009 (ip), vehicle: other): 96 % of control
T/C (dose: 100.0 mg/kg/injection, schedule: Q04DX003 (ip), vehicle: other): 102 % of control
T/C (dose: 200.0 mg/kg/injection, schedule: Q01DX001 (ip), vehicle: other): 109 % of control
T/C (dose: 200.0 mg/kg/injection, schedule: Q01DX009 (ip), vehicle: other): 102 % of control
T/C (dose: 200.0 mg/kg/injection, schedule: Q04DX003 (ip), vehicle: other): 97 % of control
T/C (dose: 400.0 mg/kg/injection, schedule: Q01DX001 (ip), vehicle: other): 98 % of control
T/C (dose: 400.0 mg/kg/injection, schedule: Q01DX009 (ip), vehicle: other): 89 % of control
T/C (dose: 400.0 mg/kg/injection, schedule: Q04DX003 (ip), vehicle: other): 111 % of control

COc1cc2ccc(CC(=O)NCc3ccccc3)cc2cc1OC
T/C [17]: 94 % of control
T/C [18]: 91 % of control
T/C [19]: 89 % of control
T/C [20]: 86 % of control
T/C [24]: 101 % of control
T/C (dose: 400.0 mg/kg/injection, schedule: Q04DX003 (ip), vehicle: saline): 101 % of control

CCCCC1(C(C)C)C(=O)NC(=O)N(C)C1=O (stereo unspecified)
T/C [25]: 100 % of control
T/C [26]: 105 % of control

O=C1c2ccccc2C(=O)c2c(Sc3ccccc3)cccc21
T/C [15]: 96 % of control
T/C [16]: 98 % of control
T/C (dose: 400.0 mg/kg/injection, schedule: Q04DX003 (ip), vehicle: saline with Tween-80): 95 % of control

COc1ccc(-c2c3c(cc4cc(OC)c(OC)cc24)C(=O)OC3=O)cc1OC
T/C [1]: 93 % of control
T/C [3]: 89 % of control
T/C [5]: 89 % of control
